Source: patent publication US12208160B2, “Pharmaceutical compositions comprising coated API” (Catalent U.K. Swindon Zydis Limited, priority 2020, dated 2025)

Legend:
[1] = Low volume dissolution of Acetaminophen raw material and coated Acetaminophen material; format: physicochemical; details: APAP
Method: This analytical method is used to determine the low volume dissolution of Acetaminophen raw material and coated Acetaminophen material. […] The following is the working standard 5-point calibration curve preparation for this Example. Calibration Point 1: Weigh accurately 50.0 mg of Acetaminophen reference standard into a 100 mL volumetric flask. Dissolve in approximately 80 mL of dissolution media and sonicate until fully dissolved. Dilute to volume with dissolution media mixing thoroughly. This is the calibration point 1 working standard solution (concentration: approximately 0.5 mg/mL). Calibration Point 2: Weigh accurately 100.0 mg of Acetaminophen reference standard into a 100 mL volumetric flask. Dissolve in approximately 80 mL of dissolution media and sonicate until fully dissolved. Dilute to volume with dissolution media mixing thoroughly. This is the calibration point 2 working standard solution (concentration: approximately 1.0 mg/mL). Calibration Point 3: Weigh accurately 200.0 mg of Acetaminophen reference standard into a 100 mL volumetric flask. Dissolve in approximately 80 mL of dissolution media and sonicate until fully dissolved. Dilute to volume with dissolution media mixing thoroughly. This is the calibration point 3 working standard solution (concentration: approximately 2.0 mg/mL). Calibration Point 4: Weigh accurately 500.0 mg of Acetaminophen reference standard into a 100 mL volumetric flask. Dissolve in approximately 80 mL of dissolution media and sonicate until fully dissolved. Dilute to volume with dissolution media mixing thoroughly. This is the calibration point 4 working standard solution (concentration: approximately 5.0 mg/mL). Calibration Point 5: Weigh accurately 550.0 mg of Acetaminophen reference standard into a 100 mL volumetric flask. Dissolve in approximately 80 mL of dissolution media and sonicate until fully dissolved (this standard solution may require slight heating to dissolve all Acetaminophen). If required, allow the solution to equilibrate to room temperature, dilute to volume with dissolution media and mix thoroughly. This is the calibration point 5 working standard solution (concentration: approximately 5.5 mg/mL). Acetaminophen raw material: Six samples are analyzed. […] The individual software potencies for each vessel will be input into the DissoPRO software at the start of experiment. Six samples are analyzed. For each sample, weigh accurately 125 mg of coated Acetaminophen material into a Pion low volume dissolution vessel. The individual software potencies for each vessel will be input into the DissoPRO software at the start of experiment. […] The Coated APAP has undergone coating at bench scale operation using the Resonance Acoustic Mixing manufacturing process. […] The slow release profile is indicative of achieving a successful coating and preventing the API from readily dissolving and therefore a taste masked API.

[2] = Mid Volume Dissolution (MVD) 60-Minute Profile of freeze-dried finished product; format: physicochemical; details: within ~5 mins; note to FIG. 26
Method: This analytical method is used to determine the mid-volume dissolution of freeze-dried finished products. The method employs a Distek small volume conversion kit. The method employs the Pion Rainbow Dynamic Dissolution Monitor (RDDM) at 75 rpm, with pH 7.2 phosphate buffer as a dissolution medium. Analysis is by fibre optic UV detection using the Pion μDISS Profiler with a UV detection under the 2nd derivative function using a 2 mm pathlength. Pathlength, dissolution media and wavelength range will vary depending on the API properties. […] A five-point calibration Curve is set up on the Pion software. The amount of API reference standard weighed will be dependent on the API. The following is an example for Ibuprofen:
As per USP <711>—A small, loose piece of non-reactive material, such as not more than a few turns on wire helix, may be attached to the freeze-dried tablets that would otherwise float. Add one freeze-dried tablet to each of the six dissolution vessels. The six probes will measure the absorbance of the API in the vessels and determine the % drug dissolved based on the calibration curve.
An additional methodology Mid Volume Dissolution (MVD) based on the 60-minute profile for the coated API has been developed to be able to directly compare dissolution profiles of the coated API with the resulting finished product units. […]

Row | % Acetaminophen dissolved ([1]; 0.0 minutes) [%] | % Acetaminophen dissolved ([1]; 5 minutes) [%] | % Acetaminophen dissolved ([1]; 10 minutes) [%] | % Acetaminophen dissolved ([1]; 15 minutes) [%] | % Acetaminophen dissolved ([1]; 20 minutes) [%] | % Acetaminophen dissolved ([1]; 25 minutes) [%] | % Acetaminophen dissolved ([1]; 30 minutes) [%] | equilibrium point (% dissolved) ([1]; within the first two minutes) | full release [2] [%] | Compound
1 | 0 | 127 | 128 | 128 | 128 | 128 | 128 | over 100% | – | CC(=O)Nc1ccc(O)cc1 [Raw Material - AN190319, Acetaminophen]
2 | – | – | – | – | – | – | – | – | ~80 | CC(C)Cc1ccc(C(C)C(=O)O)cc1 (stereo not drawn) [Raw Material, Ibuprofen]
